The source of these data is ChEMBL document CHEMBL1909046, “DrugMatrix in vitro pharmacology data”.

The structures appear in SMILES notation.

Series [1] has as its target Beta-3 adrenergic receptor (Homo sapiens, UniProt P13945). The experiment in a line: DRUGMATRIX: Adrenergic beta3 radioligand binding (ligand: [125I] Cyanopindolol). The format is cell membranes, HEK293, Membrane. To be noted: Not Active = under 50% inhibition at 10 µM.
For series [2], the target named is Sodium-dependent noradrenaline transporter (Homo sapiens, UniProt P23975). The experiment in a line: DRUGMATRIX: Norepinephrine Transporter radioligand binding (ligand: [125I] RTI-55). As to conditions: Not Active = under 50% inhibition at 10 µM. The class given is cell membranes, MDCK, Membrane.
A short description of series [3]: DRUGMATRIX: beta-Lactamase enzyme inhibition (substrate: Nitrocefin). The arrangement: species or system Bacillus cereus. As to conditions: Not Active = under 50% inhibition at 10 µM.
A short description of series [4]: DRUGMATRIX: Calcium Channel Type L, Benzothiazepine radioligand binding (ligand: [3H] Diltiazem). The format is cell membranes, Rattus norvegicus, Wistar, Brain, Membrane. As to conditions: Not Active = under 50% inhibition at 10 µM.
For series [5], the target named is Substance-P receptor (Homo sapiens, UniProt P25103). The class given is cell membranes, CHO, Membrane. To be noted: cho. Also: in other assays of this panel Not Active means under 50% inhibition at 10 µM.
The target of series [6] is T1, Nitric oxide synthase, inducible (Mus musculus, UniProt P29477).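 Also: inhibition of iNOS enzyme activity measured with L-arginine as substrate; in other assays of this panel Not Active means under 50% inhibition at 10 µM.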
T1 sequence (P29477 whole entry): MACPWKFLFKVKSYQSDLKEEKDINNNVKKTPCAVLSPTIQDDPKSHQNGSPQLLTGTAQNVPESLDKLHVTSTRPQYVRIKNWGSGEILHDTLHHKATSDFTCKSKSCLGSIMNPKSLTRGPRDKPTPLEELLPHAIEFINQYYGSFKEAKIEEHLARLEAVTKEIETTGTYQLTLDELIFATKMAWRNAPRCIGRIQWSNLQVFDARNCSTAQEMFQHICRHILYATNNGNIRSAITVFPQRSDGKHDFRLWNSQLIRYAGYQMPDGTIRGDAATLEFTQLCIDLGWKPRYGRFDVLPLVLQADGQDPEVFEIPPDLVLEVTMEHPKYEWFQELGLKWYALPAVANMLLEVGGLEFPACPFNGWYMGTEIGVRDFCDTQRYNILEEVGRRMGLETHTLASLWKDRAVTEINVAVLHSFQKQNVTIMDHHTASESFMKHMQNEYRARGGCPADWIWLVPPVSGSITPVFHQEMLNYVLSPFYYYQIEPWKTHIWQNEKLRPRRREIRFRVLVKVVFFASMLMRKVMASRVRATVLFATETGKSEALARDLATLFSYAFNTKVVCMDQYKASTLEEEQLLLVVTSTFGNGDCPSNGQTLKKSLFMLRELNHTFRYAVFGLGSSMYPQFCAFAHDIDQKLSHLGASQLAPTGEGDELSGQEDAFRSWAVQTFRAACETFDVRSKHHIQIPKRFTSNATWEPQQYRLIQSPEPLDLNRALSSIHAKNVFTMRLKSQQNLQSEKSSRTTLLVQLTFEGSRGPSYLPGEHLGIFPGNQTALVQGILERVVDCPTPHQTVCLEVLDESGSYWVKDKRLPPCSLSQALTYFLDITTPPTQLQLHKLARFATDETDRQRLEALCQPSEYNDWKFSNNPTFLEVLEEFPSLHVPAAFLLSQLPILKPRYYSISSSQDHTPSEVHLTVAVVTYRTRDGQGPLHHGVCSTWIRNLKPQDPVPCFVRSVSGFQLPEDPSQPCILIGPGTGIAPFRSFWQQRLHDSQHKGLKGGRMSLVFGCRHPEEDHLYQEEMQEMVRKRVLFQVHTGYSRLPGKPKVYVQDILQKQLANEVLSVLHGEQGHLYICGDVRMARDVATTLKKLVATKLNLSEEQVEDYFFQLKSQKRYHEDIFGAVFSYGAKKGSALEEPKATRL
Set-up: species or system Escherichia coli.

In series [7] the target is Cytochrome P450 2C19 (Homo sapiens, UniProt P33261). To be noted: bti-tn-5b1-4. Also: in other assays of this panel Not Active means under 50% inhibition at 10 µM.

The term IC50 denotes the midpoint of a concentration-inhibition curve. Broadly, the Ki is the dissociation constant of the complex between target and ligand, obtained from inhibition or displacement.

Chain of Cytochrome P450 2C19 (P33261 whole entry): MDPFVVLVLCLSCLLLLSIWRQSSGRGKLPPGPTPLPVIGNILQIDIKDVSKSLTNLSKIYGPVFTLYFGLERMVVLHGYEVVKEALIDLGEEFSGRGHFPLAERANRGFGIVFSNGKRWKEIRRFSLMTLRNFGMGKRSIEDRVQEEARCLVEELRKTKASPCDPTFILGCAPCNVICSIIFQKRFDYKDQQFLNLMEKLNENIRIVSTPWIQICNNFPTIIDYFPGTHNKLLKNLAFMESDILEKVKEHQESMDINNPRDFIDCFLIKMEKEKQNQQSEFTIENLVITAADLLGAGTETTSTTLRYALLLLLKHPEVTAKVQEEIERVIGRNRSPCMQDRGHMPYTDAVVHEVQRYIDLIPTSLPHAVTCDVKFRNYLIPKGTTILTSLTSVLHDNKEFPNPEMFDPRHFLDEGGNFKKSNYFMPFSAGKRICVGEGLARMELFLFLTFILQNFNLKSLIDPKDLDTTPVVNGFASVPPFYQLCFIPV
Chain of Sodium-dependent noradrenaline transporter (P23975 whole entry): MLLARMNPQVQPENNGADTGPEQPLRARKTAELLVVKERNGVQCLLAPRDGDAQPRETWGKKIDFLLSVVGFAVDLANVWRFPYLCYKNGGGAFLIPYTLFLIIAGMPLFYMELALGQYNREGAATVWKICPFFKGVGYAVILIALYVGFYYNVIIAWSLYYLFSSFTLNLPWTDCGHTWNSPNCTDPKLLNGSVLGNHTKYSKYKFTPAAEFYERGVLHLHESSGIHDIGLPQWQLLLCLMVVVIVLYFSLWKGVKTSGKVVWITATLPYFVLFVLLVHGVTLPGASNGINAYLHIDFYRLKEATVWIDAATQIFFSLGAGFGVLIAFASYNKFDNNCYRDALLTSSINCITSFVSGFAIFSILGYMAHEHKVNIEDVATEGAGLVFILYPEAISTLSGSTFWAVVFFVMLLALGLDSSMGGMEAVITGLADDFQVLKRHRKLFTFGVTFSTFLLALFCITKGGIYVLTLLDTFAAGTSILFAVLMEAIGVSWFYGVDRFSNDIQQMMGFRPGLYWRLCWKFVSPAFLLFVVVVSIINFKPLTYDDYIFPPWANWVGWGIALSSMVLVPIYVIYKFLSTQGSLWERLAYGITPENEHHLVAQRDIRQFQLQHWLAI
Chain of Substance-P receptor (P25103 whole entry): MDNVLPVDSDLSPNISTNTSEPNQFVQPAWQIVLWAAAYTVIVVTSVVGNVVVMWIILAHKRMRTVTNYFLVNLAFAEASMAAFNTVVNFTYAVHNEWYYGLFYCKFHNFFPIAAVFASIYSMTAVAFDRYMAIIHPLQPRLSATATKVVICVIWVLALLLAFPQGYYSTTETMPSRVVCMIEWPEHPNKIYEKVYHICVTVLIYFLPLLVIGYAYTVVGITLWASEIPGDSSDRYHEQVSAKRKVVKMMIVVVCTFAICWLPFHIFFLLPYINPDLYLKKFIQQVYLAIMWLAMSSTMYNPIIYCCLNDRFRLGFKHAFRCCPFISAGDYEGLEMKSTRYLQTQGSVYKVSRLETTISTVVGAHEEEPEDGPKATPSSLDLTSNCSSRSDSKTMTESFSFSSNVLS
Chain of Beta-3 adrenergic receptor (P13945 whole entry): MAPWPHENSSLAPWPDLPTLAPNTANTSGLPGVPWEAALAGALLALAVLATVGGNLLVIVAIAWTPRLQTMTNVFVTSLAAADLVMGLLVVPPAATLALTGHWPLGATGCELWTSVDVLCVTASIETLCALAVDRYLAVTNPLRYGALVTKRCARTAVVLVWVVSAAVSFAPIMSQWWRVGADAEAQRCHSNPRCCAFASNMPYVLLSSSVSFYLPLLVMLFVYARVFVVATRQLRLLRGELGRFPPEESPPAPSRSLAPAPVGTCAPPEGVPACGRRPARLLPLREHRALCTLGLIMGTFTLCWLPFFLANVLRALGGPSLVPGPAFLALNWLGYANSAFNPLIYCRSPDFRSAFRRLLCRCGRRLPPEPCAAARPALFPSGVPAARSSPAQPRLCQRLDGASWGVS

Turning to `Cc1cc2c(OCC(CNC(C)(C)C)OC(=O)c3ccccc3)cccc2[nH]1` (configuration not stated) [BOPINDOLOL], the IC50 in series [1] (read-out: IC50) was 458 nM; in series [2] (mdck), “Not Active”; in series [3], “Not Active”; in series [4] (read-out: IC50), 2800 nM; in series [5], “Not Active”; in series [6] it was “Not Active”. Besides, the IC50 entry in series [7] was “Not Active”. Further, the Ki in series [1] (read-out: Ki) was 344 nM; in series [3] it was “Not Active”; in series [4] (read-out: Ki), 2490 nM; in series [7], “Not Active”.
Consider `Brc1c(NC2=NCCN2)ccc2nccnc12` [BRIMONIDINE], for which the IC50 entry in series [1] (hek293), in series [2] (mdck), in series [3], in series [4], in series [5] and in series [6] was “Not Active” throughout. For the same molecule, the 50% inhibitory concentration (IC50) entry in series [7] is “Not Active”. For the same molecule, the Ki entry in series [3], in series [4] and in series [7] was “Not Active” each time.
Regarding `CN(C)[C@@H]1C(O)=C(C(N)=O)C(=O)[C@@]2(O)C(O)=C3C(=O)c4c(O)ccc(Cl)c4[C@@](C)(O)[C@H]3C[C@@H]12` [CHLORTETRACYCLINE], the IC50 entry in series [1] (hek293), in series [2] (mdck), in series [3], in series [4], in series [5] and in series [6] was “Not Active” throughout. Also, the IC50 result in series [7] is “Not Active”. Further, the Ki result in series [3], in series [4] and in series [7] was “Not Active” each time.
With `CN/C(=N\CCSCc1nc[nH]c1C)NC#N` [CIMETIDINE], the IC50 result in series [1] (hek293), in series [2] (mdck), in series [3], in series [4], in series [5] and in series [6] was “Not Active” in each case. The IC50 entry in series [7] is “Not Active”. In addition, the Ki entry in series [3], in series [4] and in series [7] was “Not Active” in each case.
Turning to `COc1cc(N)c(Cl)cc1C(=O)NC1CCN(CCCOc2ccc(F)cc2)CC1OC` (configuration not stated) [CISAPRIDE], the IC50 entry was “Not Active” in series [1] (hek293); “Not Active” in series [2] (mdck); “Not Active” in series [3]; 802 nM in series [4] (read-out: IC50); “Not Active” in series [5]; “Not Active” in series [6]. In addition, the 50% inhibitory concentration (IC50) result in series [7] is “Not Active”. For the same molecule, the Ki entry in series [3] was “Not Active”; in series [4] (read-out: Ki) it was 713 nM; in series [7] it was “Not Active”.
Take `CCC(=O)O[C@]1(C(=O)CCl)[C@@H](C)C[C@H]2[C@@H]3CCC4=CC(=O)C=C[C@]4(C)[C@@]3(F)[C@@H](O)C[C@@]21C` [CLOBETASOL PROPIONATE]: the IC50 entry in series [1] (hek293), in series [2] (mdck), in series [3], in series [4], in series [5] and in series [6] was “Not Active” each time. The IC50 result in series [7] was “Not Active”. Moreover, the Ki result in series [3], in series [4] and in series [7] was “Not Active” throughout.
As for `O=C1CN=C(c2ccccc2Cl)c2cc([N+](=O)[O-])ccc2N1` [CLONAZEPAM], the half-inhibitory concentration (IC50) entry in series [1] (hek293), in series [2] (mdck), in series [3], in series [4], in series [5] and in series [6] was “Not Active” throughout. Also, in series [7], the IC50 entry is “Not Active”. Besides, the inhibition constant Ki result in series [3], in series [4] and in series [7] was “Not Active” in each case.
As for `C[C@@H]1C[C@H]2[C@@H]3CCC4=CC(=O)C=C[C@]4(C)[C@@]3(F)[C@@H](O)C[C@]2(C)[C@H]1C(=O)CO` [DESOXIMETASONE], the IC50 result in series [1] (hek293), in series [2] (mdck), in series [3], in series [4], in series [5] and in series [6] was “Not Active” each time. In addition, in series [7], the half-inhibitory concentration (IC50) result is “Not Active”. Moreover, the Ki entry in series [3], in series [4] and in series [7] was “Not Active” each time.
Turning to `CN(C)CC[C@@H](c1ccc(Cl)cc1)c1ccccn1` [DEXCHLORPHENIRAMINE], the IC50 result in series [1] (hek293) is “Not Active”; in series [2] (read-out: IC50) it was 4970 nM; in series [3], “Not Active”; in series [4] (read-out: IC50), 6130 nM; in series [5], “Not Active”; in series [6] it was “Not Active”. Also, the IC50 result in series [7] is recorded as “Not Active”. Moreover, the Ki in series [2] (read-out: Ki) was 4920 nM; in series [3] it was “Not Active”; in series [4] (read-out: Ki) it was 5450 nM; in series [7] it was “Not Active”.
As for `C[C@@H]1CC[C@@]2(OC1)O[C@H]1[C@@H](O)[C@H]3[C@@H]4CC[C@H]5C[C@@H](O[C@@H]6O[C@H](CO)[C@H](O[C@@H]7O[C@H](CO)C(O)[C@H](O[C@@H]8OC[C@@H](O)[C@H](O)[C@H]8O)[C@H]7O[C@@H]7O[C@H](CO)[C@H](O)[C@H](O[C@@H]8O[C@H](CO)[C@@H](O)[C@H](O)[C@H]8O)[C@H]7O)[C@H](O)[C@H]6O)[C@H](O)C[C@]5(C)[C@H]4CC[C@]3(C)[C@H]1[C@@H]2C` (some centres not stated) [DIGITONIN], the IC50 result in series [1] (hek293), in series [2] (mdck), in series [3], in series [4], in series [5] and in series [6] was “Not Active” throughout. Moreover, the IC50 entry in series [7] was “Not Active”. In addition, the Ki entry in series [3], in series [4] and in series [7] was “Not Active” each time.
In the case of `OC(CCCN1CCCCC1)(c1ccccc1)c1ccccc1` [DIPHENIDOL], the IC50 result in series [1] (hek293), in series [2] (mdck), in series [3], in series [4], in series [5] and in series [6] was “Not Active” each time. Moreover, the 50% inhibitory concentration (IC50) result in series [7] was “Not Active”. The Ki result in series [3], in series [4] and in series [7] was “Not Active” in each case.
Consider `C[C@H]1O[C@@H](n2cc(F)c(=O)[nH]c2=O)[C@H](O)[C@@H]1O` [DOXIFLURIDINE], for which the IC50 result in series [1] (hek293), in series [2] (mdck), in series [3], in series [4], in series [5] and in series [6] was “Not Active” each time. The IC50 entry in series [7] was “Not Active”. Besides, the Ki result in series [3], in series [4] and in series [7] was “Not Active” throughout.
Turning to `Cn1c(=O)c2c(ncn2CC(O)CO)n(C)c1=O` (configuration not stated) [DYPHYLLINE], the half-inhibitory concentration (IC50) entry in series [1] (hek293), in series [2] (mdck), in series [3], in series [4], in series [5] and in series [6] was “Not Active” in each case. Moreover, the IC50 entry in series [7] is recorded as “Not Active”. The Ki entry in series [3], in series [4] and in series [7] was “Not Active” each time.
On to `C[C@@H](CO)NC(=O)[C@@H]1C=C2c3cccc4[nH]cc(c34)C[C@H]2N(C)C1` [ERGONOVINE], for which the IC50 result in series [1] (hek293), in series [2] (mdck), in series [3], in series [4], in series [5] and in series [6] was “Not Active” each time. In series [7], the IC50 result is listed as “Not Active”. The inhibition constant Ki result in series [3], in series [4] and in series [7] was “Not Active” throughout.
Regarding `COC(=O)CCc1ccc(OCC(O)CNC(C)C)cc1` (configuration not stated) [ESMOLOL], the IC50 entry in series [1] (hek293), in series [2] (mdck), in series [3], in series [4], in series [5] and in series [6] was “Not Active” throughout. Also, the IC50 result in series [7] was “Not Active”. For the same molecule, the Ki result in series [3], in series [4] and in series [7] was “Not Active” in each case.
